Molecular target: MDM2 (Homo sapiens, UniProt Q00987)
Assay: MDM2 binding screen of Libraries 3 and 4: displacement of fluorescent probe F-M8 at 750 nM macrocycle
How it was run: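 Competition with nutlin-3a was run using the fluorescein conjugate. Library members came from scaffolds reacted 6 h at room temperature with carboxylic acids (20 equiv.), HBTU and DABCO in DMSO. Quenching was overnight in Tris-Cl pH 7.4 buffer with 0.01% Tween20.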

[1] = Panel b, Library 3: 63 scaffolds combinatorially acylated with 15 carboxylic acids at 30 picomole scale, displacement of fluorescent peptide probe, macrocycle 750 nM
[2] = Panel c, Library 4: best nine scaffolds and 15 additional carboxylic acids, displacement of fluorescent probe

MDM2, sequence (Q00987 whole entry): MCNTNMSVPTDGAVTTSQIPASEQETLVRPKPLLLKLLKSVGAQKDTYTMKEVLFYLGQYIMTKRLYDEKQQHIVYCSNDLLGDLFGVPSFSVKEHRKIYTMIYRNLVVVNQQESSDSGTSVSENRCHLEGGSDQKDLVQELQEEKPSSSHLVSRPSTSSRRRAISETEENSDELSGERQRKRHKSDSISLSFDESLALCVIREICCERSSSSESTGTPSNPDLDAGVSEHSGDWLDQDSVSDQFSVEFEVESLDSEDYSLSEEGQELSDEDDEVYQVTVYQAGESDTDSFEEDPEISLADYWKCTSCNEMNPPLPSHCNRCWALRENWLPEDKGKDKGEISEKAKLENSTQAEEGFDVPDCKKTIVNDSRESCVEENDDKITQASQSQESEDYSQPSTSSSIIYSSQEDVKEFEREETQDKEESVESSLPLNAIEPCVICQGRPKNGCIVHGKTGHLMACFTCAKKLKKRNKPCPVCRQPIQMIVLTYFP

Row | SMILES | fraction of fluorescent probe displaced [1] | fraction of fluorescent probe displaced [2]
1 | O=C1CN(CCNC(=O)c2ccc(Cl)s2)C(=O)[C@@H]2CN(CCO2)C(=O)CCSSCCNC(=O)[C@@H](Cc2c[nH]c3ccccc23)N1 [X-Cop-N-Aeg-D-Trp + Acid 14] | -0.012 | 
2 | Cn1cc(C[C@@H]2NC(=O)CN(CCNC(=O)/C=C/c3ccc4ccccc4c3)C(=O)C3(CC3)CNC(=O)CCSSCCNC2=O)c2ccccc21 [X-Amcp-N-Aeg-Me-Trp + Acid 112] | 0.028 | 
3 | O=C(/C=C/c1ccc2ccccc2c1)NC[C@@H]1NC(=O)[C@H]2CCCN(C2)C(=O)CCSSCCNC(=O)[C@H](Cc2ccc3ccccc3c2)NC1=O [X-Nip-Dap-2-Nal + Acid 112] | 0.021 | 
4 | O=C(/C=C/c1ccc(Cl)cc1)NCCN1CC(=O)N[C@H](Cc2c[nH]c3ccccc23)C(=O)NCCSSCCC(=O)N2CCO[C@@H](C2)C1=O [X-Cop-N-Aeg-D-Trp + Acid 108] | 0.015 | 
5 | O=C(/C=C/c1ccc(OCc2ccccc2)cc1)NC[C@H]1NC(=O)C2(CC2)CNC(=O)CCSSCCNC(=O)[C@H](Cc2c[nH]c3ccccc23)NC1=O [X-Amcp-D-Dap-Trp + Acid 110] | 0.015 | 
6 | O=C1CCSSCCNC(=O)[C@H](Cc2c[nH]c3cc(Cl)ccc23)NC(=O)[C@H](CNC(=O)c2cccc(Oc3ccccc3)c2)NC(=O)C2(CC2)CN1 [X-Amcp-Dap-Cl-Trp + Acid 111] | 0.008 | 
7 | O=C(/C=C/c1ccc(OCc2ccccc2)cc1)NC[C@H]1NC(=O)[C@H]2CCCN(C2)C(=O)CCSSCCNC(=O)[C@H](Cc2ccc3ccccc3c2)NC1=O [X-Nip-D-Dap-2-Nal + Acid 110] | 0.008 | 
8 | Cn1cc(C[C@@H]2NC(=O)[C@H](CNC(=O)/C=C/c3ccc(Cl)cc3)NC(=O)[C@H]3CCCN(C3)C(=O)CCSSCCNC2=O)c2ccccc21 [X-Nip-Dap-Me-Trp + Acid 108] | 0.075 | 
9 | Cn1cc(C[C@@H]2NC(=O)[C@@H](CNC(=O)/C=C/c3ccc(Cl)cc3)NC(=O)C3(CC3)CNC(=O)CCSSCCNC2=O)c2ccccc21 [X-Amcp-D-Dap-Me-Trp + Acid 108] | 0.008 | 
10 | CCCOc1ccc(/C=C/C(=O)NC[C@@H]2NC(=O)[C@H]3CCCN(C3)C(=O)CCSSCCNC(=O)[C@H](Cc3cccc4ccccc34)NC2=O)cc1 [X-Nip-Dap-1-NaI + Acid 118] |  | -0.00464
11 | O=C(/C=C/c1ccc2ccccc2c1)NC[C@H]1NC(=O)[C@@H]2CN(CCO2)C(=O)CCSSCCNC(=O)[C@H](Cc2c[nH]c3cc(Cl)ccc23)NC1=O [X-Cop-D-Dap-Cl-Trp + Acid 112] | 0.055 | 
12 | O=C(NC[C@@H]1NC(=O)[C@H]2CCCN(C2)C(=O)CCSSCCNC(=O)[C@@H](Cc2c[nH]c3ccccc23)NC1=O)c1ccc(Cl)s1 [X-Nip-Dap-D-Trp + Acid 14] | -0.172 | 
13 | CCOc1ccc(/C=C/C(=O)NC[C@@H]2NC(=O)[C@H]3CCCN(C3)C(=O)CCSSCCNC(=O)[C@H](Cc3c[nH]c4ccccc34)NC2=O)cc1 [X-Nip-Dap-Trp + Acid 117] |  | 0.533
14 | CN1C(=O)CN(CCNC(=O)c2cccc(Oc3ccccc3)c2)C(=O)C2(CC2)CNC(=O)CCSSCCNC(=O)[C@@H]1Cc1c[nH]c2ccccc12 [X-Amcp-N-Aeg-NMe-Trp + Acid 111] | 0.00133 | 
15 | O=C(/C=C/c1ccc(OCc2ccccc2)cc1)NC[C@@H]1NC(=O)[C@@H]2CN(CCO2)C(=O)CCSSCCNC(=O)[C@H](Cc2ccc3ccccc3c2)NC1=O [X-Cop-Dap-2-Nal + Acid 110] | 0.035 | 
16 | CN1C(=O)CN(CCNC(=O)c2ccc(Cl)s2)C(=O)[C@@H]2CN(CCO2)C(=O)CCSSCCNC(=O)[C@@H]1Cc1c[nH]c2ccccc12 [X-Cop-N-Aeg-NMe-Trp + Acid 14] | -0.025 | 
17 | O=C(/C=C/c1ccc(OCc2ccccc2)cc1)NC[C@H]1NC(=O)C2(CC2)CNC(=O)CCSSCCNC(=O)[C@H](Cc2cccc3ccccc23)NC1=O [X-Amcp-D-Dap-1-NaI + Acid 110] | 0.028 | 
18 | CC(Oc1cccc(Cl)c1)C(=O)NCC1NC(=O)C2(CC2)CNC(=O)CCSSCCNC(=O)C(Cc2c[nH]c3ccccc23)NC1=O (mixture of isomers) [X-Amcp-Dap-Trp + Acid 113] | 0.00133 | 
19 | O=C(CCS(=O)(=O)c1ccccc1)NCCN1CC(=O)N[C@@H](Cc2ccc3ccccc3c2)C(=O)NCCSSCCC(=O)NCC2(CC2)C1=O [X-Amcp-N-Aeg-2-Nal + Acid 114] | 0.028 | 
20 | O=C1CN(CCNC(=O)c2ccc(Cl)s2)C(=O)[C@@H]2CN(CCO2)C(=O)CCSSCCNC(=O)[C@H](Cc2cccc3ccccc23)N1 [X-Cop-N-Aeg-1-NaI + Acid 14] | -0.025 | 
21 | O=C(CCS(=O)(=O)c1ccccc1)NCCN1CC(=O)NC(Cc2cccc3ccccc23)C(=O)NCCSSCCC(=O)N2CCOC(C2)C1=O (stereo not drawn) [X-Cop-N-Aeg-1-NaI + Acid 114] | 0.015 | 
22 | CN1C(=O)[C@H](CNC(=O)c2cccc(Oc3ccccc3)c2)NC(=O)C2(CC2)CNC(=O)CCSSCCNC(=O)[C@@H]1Cc1c[nH]c2ccccc12 [X-Amcp-Dap-NMe-Trp + Acid 111] | -0.012 | 
23 | O=C(NC[C@H]1NC(=O)[C@@H]2CN(CCO2)C(=O)CCSSCCNC(=O)[C@H](Cc2c[nH]c3ccccc23)NC1=O)C1COc2ccccc2O1 (stereo partly drawn) [X-Cop-D-Dap-Trp + Acid 115] | 0.008 | 
24 | O=C(CCS(=O)(=O)c1ccccc1)NC[C@@H]1NC(=O)C2(CC2)CNC(=O)CCSSCCNC(=O)[C@@H](Cc2c[nH]c3ccccc23)NC1=O [X-Amcp-Dap-D-Trp + Acid 114] | 0.035 | 
25 | Cn1cc(C[C@@H]2NC(=O)[C@@H](CNC(=O)c3ccc4ccccc4c3)NC(=O)[C@@H]3CN(CCO3)C(=O)CCSSCCNC2=O)c2ccccc21 [X-Cop-D-Dap-Me-Trp + Acid 107] | 0.050 | 
26 | O=C1CN(CCNC(=O)c2cccc(Oc3ccccc3)c2)C(=O)[C@H]2CCCN(C2)C(=O)CCSSCCNC(=O)[C@H](Cc2c[nH]c3cc(Cl)ccc23)N1 [X-Nip-N-Aeg-Cl-Trp + Acid 111] | -0.00533 | 
27 | Cn1cc(C[C@@H]2NC(=O)[C@H](CNC(=O)/C=C/c3ccc4ccccc4c3)NC(=O)C3(CC3)CNC(=O)CCSSCCNC2=O)c2ccccc21 [X-Amcp-Dap-Me-Trp + Acid 112] | 0.028 | 
28 | O=C(CCS(=O)(=O)c1ccccc1)NC[C@@H]1NC(=O)C2(CC2)CNC(=O)CCSSCCNC(=O)[C@H](Cc2c[nH]c3ccccc23)NC1=O [X-Amcp-Dap-Trp + Acid 114] | -0.00533 | 
29 | CC(Oc1cccc(Cl)c1)C(=O)NC[C@@H]1NC(=O)C2(CC2)CNC(=O)CCSSCCNC(=O)[C@H](Cc2cccc3ccccc23)NC1=O (stereo partly drawn) [X-Amcp-Dap-1-NaI + Acid 113] | -0.012 | 
30 | Cn1cc(C[C@@H]2NC(=O)[C@H](CNC(=O)c3ccc(Cl)s3)NC(=O)[C@H]3CCCN(C3)C(=O)CCSSCCNC2=O)c2ccccc21 [X-Nip-Dap-Me-Trp + Acid 14] | 0.028 | 
